# Legend:
# [1] = system: tumor vasculature of 786-O xenografts; experiment: IHC of tumor vasculature in 786-O xenografts; format: in vivo, mouse
# Method: (§1) Formalin-fixed paraffin-embedded samples were sectioned at 5 μm thickness and mounted on Superfrost Plus microscope slides (Fisher Scientific). All immunohistochemical (IHC) staining was performed on Bond Rx auto-stainer (Leica Biosystems) using the conventional TSA-amplified detection system. Primary antibodies used were as follows: α-CD31 (Abcam #ab182981), α-smooth muscle actin (SMA; Abcam #ab124964), α-Meca32 (Novus Biologicals #NB100-77668). TSA-conjugated Alexa488 and Alexa647 fluorophores from Invitrogen (#B40953 and #B40958) were used at 1:500 dilution. Slides were counterstained with DAPI and cover slipped using Mowiol antifade mounting media (Sigma #D2522).
# (§2) Slides were imaged with Aperio Versa 200 (Leica Biosystems) whole-slide scanner using 10×/0.32NA objective, and the data were analyzed using custom-written macros in ImageJ/FIJI (NIH). Briefly, 150 μm of outer edges of the tumor sections were eliminated from the analysis. Gaussian-blurred DAPI channel was used to measure the area of the tissue. Scans of […] were processed with median filter to remove noise, then positive areas were measured with appropriate threshold levels. % positive area for each marker was calculated. CD31-SMA double positive areas were measured via image calculation of the binary images. One-way ANOVA and pair-wise comparisons were performed on the data using Prism GraphPad.
# PERK is an adaptive stress response that links hypoxia and nutrient deprivation with proangiogenic signaling. The effect of HC-5404 on tumor vasculature when administered in combination with antiangiogenic VEGFR-TKIs was investigated.
# As immature blood vessels mature, they develop a mural layer of cells that express smooth muscle actin (SMA), which encircles and stabilizes the maturing vessel. Co-staining for both CD31 and SMA was conducted to determine whether treatments were affecting mature or immature tumor blood vessels.
# This example investigated the inhibition the effect of cabozantinib on the formation of new tumor vasculature and on pericytes following procedures analogous to those described above.
# [2] = system: tumor vasculature and pericyte cells of 786-O xenografts progressed on axitinib; experiment: IHC of tumor vasculature and pericytes in 786-O xenografts that progressed on axitinib; format: in vivo, mouse
# Method: as §1, §2
# After 14 days of treatments, 77 mice bearing the largest tumors were rerandomized into four PD arms (n=8), four efficacy arms (n=10), and 5 tumors sampled on day of rerandomization as a baseline. The remaining animals were removed from study.
# [3] = system: 786-O RCC xenograft; experiment: 786-O RCC xenograft tumor growth; format: in vivo, mouse; details: for effect on tumor volume: single agent, efficacy arms (FIG. 28)
# Method: (§3) Xenograft RCC models were generated as follows: Female NOD.SCID mice (6-8 weeks of age) were injected with A498 RCC cells (5×10^6 cells/mouse), female Balb/c Nude mice (6-8 weeks old) were implanted with 786-O RCC cells (5×10^6 cells/mouse) or Caki-1 RCC cells (6×10^6 cells/mouse), female Athymic Nude-Foxn1nu mice (7-8 weeks of age) were implanted with MFE280 endometrial cells (10×10^6 cells/mouse). Cells were implanted into the flank of animals.
# (§4) Once tumor tumors reached volume of typically 150-250 mm^3, animals were randomized by tumor volume into the treatment groups of 8 or 10 animals per group. In the single animal trial with RCC PDX models, only one animal per group was enrolled.
# (§5) Body weight and tumor volume were measured twice weekly. Tumor volume was calculated using the formula [tumor volume (mm^3)=π/6×length×width^2] and plotted as means+SEM. The percentage of tumor growth inhibition was calculated at the end of the study using the formula: […], if ΔT>0, ΔT, mean tumor volume of the drug-treated group on the observation day of the study—mean tumor volume of the drug-treated group on initial day of dosing; ΔC, mean tumor volume of the control group on the observation day of the study—mean tumor volume of the control group on initial day of dosing. Regression was calculated using the formula=100×ΔT/Tinitial, if ΔT<0. Animals with >50% regressions were partial responders. Animals with tumor volume of 0 (no measurable tumor) were considered as complete responders, and animals with <50% tumor regression and 30% growth over the baseline were considered as stable disease. Animals with tumors>30% increase over the baseline were considered progressive disease. The % change in body weight was calculated by the formula (body weight on observation day−body weight on initial day)/body weight on initial day×100%.
# [4] = mouse body weight / tolerability; format: in vivo; details: for body weight loss: 786-O xenografts, single agent PO, 21 days (FIG. 26)
# Method: as §5
# [5] = system: RCC patient-derived xenografts (PDXs); experiment: single-animal study in RCC PDX models; format: in vivo, mouse
# Source text: For patient derived xenograft model generation, small pieces of neuroendocrine pancreatic cancers were implanted into female NSG mice (6-8 weeks of age), fragments of Huprime gastric cancers were implanted into female Balb/c nude mice and for a single animal trial in RCC PDX models, tumor fragments from selected RCC PDX models were implanted into mice unilaterally.
# as §4
# (§6) Body weight and tumor volume were measured twice weekly. Tumor volume was calculated using the formula [tumor volume (mm^3)=π/6×length×width^2] and plotted as means+SEM. The percentage of tumor growth inhibition was calculated at the end of the study using the formula: 100−[1−(ΔT/ΔC)], if ΔT>0, ΔT, mean tumor volume of the drug-treated group on the observation day of the study—mean tumor volume of the drug-treated group on initial day of dosing; ΔC, mean tumor volume of the control group on the observation day of the study—mean tumor volume of the control group on initial day of dosing. Regression was calculated using the formula=100×ΔT/Tinitial, if ΔT<0. Animals with >50% regressions were partial responders. […]
# [6] = system: pPERK in 786-O tumors; experiment: pPERK in 786-O tumor xenografts; format: in vivo, mouse; details: for pPERK accumulation in 786-O tumors: PD arm, 7 days of dosing, single agent; for pPERK levels in 786-O tumors: single agent PO, several dose levels, 21 days (FIG. 26)
# [7] = system: MFE280 endometrial cancer model; experiment: MFE280 endometrial xenograft tumor growth; format: in vivo, mouse; details: single agent: HC-5404 30 mg/kg PO BID or lenvatinib 10 mg/kg QD (FIG. 77)
# Method: as §3, §4
# as §6, with “ΔT<0.” for “ΔT<0. Animals with >50% regressions were partial responders.”
# [8] = system: A498 RCC xenograft; experiment: A498 RCC xenograft tumor growth; format: in vivo, mouse; details: single agent: HC-5404 30 mg/kg PO BID or sunitinib 20 mg/kg PO QD (FIG. 31)
# Method: as §3, §4, §5
# [9] = system: Caki-1 RCC xenograft; experiment: Caki-1 RCC xenograft tumor growth; format: in vivo, mouse; details: HC-5404 or sunitinib monotherapy, compared with A498 (FIG. 32)
# Method: as §3, §4, §5
# [10] = 7 days after rerandomization (FIG. 92)
compound,measurement,setting,value
CNC(=O)c1ccccc1Sc1ccc2c(/C=C/c3ccccn3)n[nH]c2c1 [axitinib],proportion of Meca32 expressing vascular endothelial cells,"[1]; axitinib study (FIG. 38, 39)",decreased
same,immature CD31+SMA− vessels,[1]; axitinib study (FIG. 39),decreased
same,mature CD31+SMA+ cells,[1]; axitinib study (FIG. 39),did not affect
same,proportion of cells expressing CD31,[2]; [10],decreased by axitinib
same,proportion of smooth muscle actin (SMA),[2]; [10],decreased
same,number of Meca32+ and CD31+ cells,"[2]; FIG. 41, 42",decreased
same,MCAM+ cells,"[2]; FIG. 43, 44",decreased by axitinib
same,effect on tumor volume,[3],modest effects on tumor volume
same,body weight loss,[4],no treatment-associated body weight loss was observed
same,partial responses (PRs) among models,"[5]; 15 RCC PDX models, 28 days, PR: regression >50% vs baseline (FIG. 35)",1/15
same,sensitivity of VHLwt models to axitinib,[5]; three of the VHLwt models,decreased sensitivity to axitinib
same,pPERK accumulation in 786-O tumors,[6],induced pPERK accumulation
same,pPERK levels in 786-O tumors,[6],dose-dependent increases in pPERK
COc1cc2nccc(Oc3ccc(NC(=O)C4(C(=O)Nc5ccc(F)cc5)CC4)cc3)c2cc1OC [cabozantinib],immature vasculature (CD31+SMA− cells),"[1]; cabozantinib study (FIG. 54, 55)",near complete loss of immature vasculature
same,partial responses,[3]; cabozantinib 30 mg/kg QD alone or with HC-5404 10 or 30 mg/kg BID (each group),2/8
same,tumor response,[3]; cabozantinib 30 mg/kg QD monotherapy (FIG. 52),tumor stasis
same,effect on tumor volume,[3],modest effects on tumor volume
same,body weight loss,[4],no treatment-associated body weight loss was observed
same,mouse body weight,"[4]; 786-O, HC-5404 3, 10, 30 mg/kg BID and/or cabozantinib 30 mg/kg QD (FIG. 53)",did not affect mouse body weight
same,pPERK accumulation in 786-O tumors,[6],induced pPERK accumulation
same,pPERK levels in 786-O tumors,[6],dose-dependent increases in pPERK
COc1cc2nccc(Oc3ccc(NC(=O)NC4CC4)c(Cl)c3)c2cc1C(N)=O [lenvatinib],TGI %,[7],~ 85%
same,effect on tumor volume,[3],modest effects on tumor volume
same,body weight loss,[4],no treatment-associated body weight loss was observed
same,pPERK accumulation in 786-O tumors,[6],induced pPERK accumulation
same,pPERK levels in 786-O tumors,[6],dose-dependent increases in pPERK
"CCN(CC)CCNC(=O)c1c(C)[nH]c(/C=C2\C(=O)Nc3ccc(F)cc32)c1C [sunitinib, reference compound]",TGI,[8],80%
same,sensitivity of Caki-1 to monotherapy,[9],far less sensitive
same,inhibition of 786-O growth,[3]; sunitinib single agent 40 mg/kg QD (FIG. 28),effective inhibitor of 786-O growth
same,pPERK accumulation in 786-O tumors,[6],induced pPERK accumulation
same,pPERK in 786-O xenografts,[6]; sunitinib single agent,increased pPERK
same,time course of pPERK increase in 786-O xenografts,[6]; sunitinib single agent,increased over time
